Experimental data from PubChem BioAssay AID179 (DTP/NCI, 2004).
Where “and” joins values, the source holds several entries; their conditions need not be identical. Equal entries are not always repeated. Calls of active or inactive are those of the source.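 Rule for the calls: active = compounds giving half or more protection of infected cells from virus-caused growth loss, again on retest; inactive = the rest.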

System: CEM cells HIV-1 protection, formazan growth assay
Experiment: NCI AIDS Antiviral Assay
Details: for IC50: measured here: growth of uninfected CEM cells
Summary of the method: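 Protection of CEM cells against HIV-1 was scored from cell growth (soluble formazan) across five concentrations, with parallel uninfected cells. Lack of protection may reflect toxicity.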

SMILES | outcome | EC50 [µM] | IC50
O=S1(=O)N2CN3CN(C2)CN1C3 | inactive | – | –
COc1ccc(N2C(=O)C3c4[nH]c5ccc(OCc6ccccc6)cc5c4C4CCC(C(C)C)CC4C3C2=O)cc1 (stereo not given) | – | > 100 | > 100 µM
O=c1nc(N2CCCC2)oc2cc3ccccc3cc12 | – | > 200 | 89.1 µM
O=S(=O)(O)CN(CS(=O)(=O)O)c1nc(N(CS(=O)(=O)O)CS(=O)(=O)O)nc(N(CS(=O)(=O)O)CS(=O)(=O)O)n1 | – | > 100 | 15.5 µM
NC(=O)C(=CNC(=S)Nc1ccc(Cl)c(Cl)c1)C(N)=O | – | > 200 | 30.2 µM
COC(=O)C(c1ccc(OC)cc1)N1C(=O)[C@@H](NC(=O)c2ccccc2)[C@H]1[C@@H](C)O (stereo not given in full) | – | > 200 | > 200 µM
O=[N+]([O-])c1cccc(S(=O)(=O)OCn2ncc3ccc([N+](=O)[O-])cc32)c1 | – | > 200 | 151 µM
CCOC(=O)C(C[Si](C)(C)C)P(=O)(OCC)OCC (stereo not given) | – | > 575 | 537 µM
O=C(O)c1cc(-n2c(-c3ccccc3)cc3c2CCc2ccccc2-3)ccc1O | inactive | – | –
COC(=O)C(C)(C)C(=O)C(C)(C)P(C)(=O)OC (stereo not given) | – | > 200 | > 200 µM
CCOC(=O)C(NC(=O)c1ccccc1)(c1ccc(S(=O)(=O)Nc2onc(C)c2C)cc1)C(F)(F)F (stereo not given) | – | > 200 | > 200 µM
O=C1/C(=C/c2ccc(Br)s2)NC(=S)N1CN1CCOCC1 | – | > 200 | 36.3 µM
O=c1cc(C(F)(F)F)[nH]c2c3ncccc3c3nc4ccccc4nc3c12 | – | 0.214 | 2.82 µM
CCN(CC)CC1CCCCN1CC(=O)N1c2ccccc2NC(=O)CC1C (stereo not given) | – | 158 | > 200 µM
O=[N+]([O-])c1cc(NN=C(c2ccccc2)c2ccccc2)cc([N+](=O)[O-])c1 | – | > 3.98 | > 3.98 µM
CCOP(=O)(OCC)C(Cc1ccc(OC)c(OC)c1)N=C(c1ccccc1)c1ccccc1 (stereo not given) | – | > 200 | 29.5 µM
C=C(C)[C@@H]1CC[C@]2(C)CC[C@]3(C)[C@H](CC[C@@H]4[C@@]5(C)CC[C@H](O)C(C)(C)[C@@H]5CC[C@]43C)[C@@H]12 | – | > 100 | 51.3 µM
O=c1[nH]c2cc([N+](=O)[O-])ccc2nc1/C(=N/Nc1ccccc1)C(O)c1ccc(C(O)/C(=N\Nc2ccccc2)c2cnc3cc([N+](=O)[O-])ccc3n2)cc1 (stereo not given) | – | > 49 | 17 µM
CC1(C)C2CC(=O)C1(C)C(OCc1ccccc1)C2 (stereo not given) | inactive | – | –
COc1ccc(NC(=O)CCc2cc(-c3ccc(O)c(OC)c3)nc(NC#N)n2)cc1 | – | > 224 | > 224 µM
CC(C)c1nsc(N)c1C(N)=O | – | > 200 | > 200 µM

SMILES | outcome | EC50 [µM] | IC50
Nc1c(-c2nc3ccccc3s2)c2ccc([N+](=O)[O-])cc2c(=O)n1-c1cccc(C(=O)O)c1 | – | 7.76 | 37.2 µM
Cc1cc(NS(=O)(=O)c2ccc(NC(=O)c3ccc4nc5ccccc5c(Nc5ccc(S(N)(=O)=O)cc5)c4c3)cc2)no1 | – | > 81.3 | 29.5 µM
CC1=N/C(=C\c2ccc(C)cc2)C(=O)O1 | inactive | > 129 | > 129 µM
CC(NC(=O)C1CCCN1C(=O)OCc1ccccc1)C(=O)O (stereo not given) | – | > 776 | > 776 µM
O=C(Nc1ccc(Cl)c(Cl)c1)C(=O)C(C(=O)c1ccccc1-c1ccccc1)C1OC(=O)c2ccccc21 (stereo not given) | – | > 66.1 | 29.5 µM
O=c1c(-c2ccccc2)c[nH]c2cc([N+](=O)[O-])c(/C(Cl)=C/c3ccccc3)cc12 | inactive | – | –
Nc1sc(=S)nc2[nH]ncc12 | – | > 200 | > 200 µM
CC1(O)C[C@]23CC[C@H]4[C@@H](CC=C5C[C@@H](O)CC[C@@]54C)[C@@H]2CC[C@H]13 (stereo not given in full) | – | > 200 | > 200 µM
O=S(=O)(/C=N\N=P(c1ccccc1)(c1ccccc1)c1ccccc1)c1ccccc1-c1ccccc1 | – | > 200 | 107 µM
CC1CC(c2ccc3ccccc3c2)NCCNC(c2ccc3ccccc3c2)CC(C)NCCN1 (stereo not given) | – | > 200 | 1.15 µM
Cc1cc(CO)c(O)c(CNCc2cc(C)cc(CO)c2O)c1 | – | > 200 | 8.71 µM
c1ccc(COc2cccc3ccc[n+](Cc4ccccc4)c23)cc1 | – | > 251 | 4.68 µM
O=C(O)COc1ccc(S(=O)(=O)c2ccc(OCC(=O)O)c([N+](=O)[O-])c2)cc1[N+](=O)[O-] | – | > 200 | > 200 µM
COC(=O)c1ccccc1C1CN=NC12Cc1cccc(C)c1C2=O (stereo not given) | – | > 200 | 57.5 µM
N#C/C(=C\N1CC(=O)NC1=S)C(N)=O | – | > 200 | > 200 µM
O=C(Nc1ccccn1)/C(=C\C(=O)c1ccc(Cl)cc1)Nc1ccccc1 | – | > 200 | 174 µM
O=[N+]([O-])C(=C(N1CCOCC1)N1CCOCC1)/C(Cl)=C(\Cl)Br | – | > 200 | 9.77 µM
CN1CCN(c2[nH]c(=O)n(-c3ccccc3)c(=S)c2C#N)CC1 | – | > 200 | > 200 µM
Cc1cc(S(=O)(=O)NC2=NCc3nc4ccccc4n32)c(S)cc1Cl | – | > 200 | 35.5 µM
CCOC(=O)/C(C#N)=C/c1cc2c3c(c1)CCCN3CCC2 | – | > 100 | > 100 µM
COC1OC(C)/C(=N/O)C2OC(C)(C)OC12 (stereo not given) | – | > 1070 | > 1070 µM

SMILES | outcome | EC50 [µM] | IC50
C1CN2CN1CN1CCN(C1)C2 | – | > 200 | 22.9 µM
COc1ccc(OC)c2c1C=CC(Br)=CC2 | – | > 200 | 53.7 µM
Nc1nnc2ccccn12 | – | > 977 | > 977 µM
COc1cc(N=Nc2ccccc2C(=O)O)cc(/C=N/NC(=O)c2cccnc2)c1O | – | > 12.3 | > 12.3 µM
CCc1cc(CCC(=O)Nc2ccccc2[N+](=O)[O-])[nH]c(=S)n1 | – | > 759 | > 759 µM
CCN(CC)c1ccc2cc(-c3nc4ccccc4s3)c(=O)oc2c1 | – | > 20.4 | > 20.4 µM
CCC1=C(c2ccc(OC)cc2)CCC2(CCNC2)C1C (stereo not given) | – | > 513 | 10.5 µM
c1cncc(-c2nc3sc(-c4cccnc4)nc3s2)c1 | inactive | – | –
O=C1ON(c2ccccc2)C(c2ccccc2)N1c1ccccc1 (stereo not given) | – | > 200 | 61.7 µM
CCCCCCOc1ccc(C(=O)NOCc2ccccc2)cc1 | – | > 200 | 66.1 µM
COc1ccc(C(O)c2ccc3c(c2)OCO3)cc1 (stereo not given) | – | > 200 | 162 µM
COc1ccccc1NC(=O)CC(=O)n1nc(C)c(N=Nc2ccccc2F)c1C | inactive | – | –
CCOC(=O)N1CC2(C)C=CC1C(C(=O)OC)C2 (stereo not given) | – | > 200 | > 200 µM
COc1cc(CNc2ccc(SC)cc2)cc(OC)c1OC | – | > 100 | 4.68 µM and 4.79 µM
C/C=C(\NC(=O)C(CCCCN)NC(=O)C(C)NC(=O)C1CSC(C)C(NC(=O)C2CSCC(NC(=O)C(C)NC(=O)C(N)C(C)CC)C(=O)NC(CCCCN)C(=O)NC(Cc3ccccc3)C(=O)NC(CC(C)C)C(=O)N2)C(=O)N2CCCC2C(=O)NCC(=O)N1)C(=O)NCC(=O)NC1CSCC2NC(=O)C(Cc3ccc(O)cc3)NC(=O)C(CSC=CNC2=O)NC(=O)C(CC(N)=O)NC(=O)C(Cc2ccccc2)NC1=O (stereo not given) | inactive | – | –
CC1=C(C)SC(=C2Sc3nc(O)[nH]c(=O)c3S2)S1 | – | > 200 | 145 µM
N#Cc1c2c(c(Nc3ccc(F)cc3)n3c1nc1ccccc13)CCCC2 | – | > 200 | 81.3 µM
CC(Oc1ccccc1)C(=O)NNC(=O)OC(C)(C)C (stereo not given) | – | > 200 | > 200 µM
CC(C)(C)OC(=O)NCC(C#N)CNC(=O)OC(C)(C)C | – | > 603 | > 603 µM
CC1=NN(C(=O)c2ccccc2)C(C)C1N=Nc1ccccc1C(=O)O (stereo not given) | inactive | – | –
N#C/C(=C\n1ccc(=O)[nH]c1=S)C(=O)c1ccc2ccccc2c1 | – | > 200 | 123 µM

SMILES | outcome | EC50 [µM] | IC50
O=c1[nH]c(=O)n(C2CC(O)C(CO)O2)cc1/C=C/Br (stereo not given) | – | > 759 | 741 µM
COC1(OC)c2ccccc2C2(O)c3ccccc3C(=O)C12 (stereo not given) | inactive | – | –
CNC(=O)NCCN1CC2CCC(CC2)C1 | – | > 200 | > 200 µM
O=C(O)c1ccccc1SCc1cc(O)ccc1O | – | > 200 | 30.9 µM
O=C1NC(=O)C(=Cc2cccc(Br)c2)C(=O)N1 | – | > 123 | > 123 µM
CC1=C(C(=O)Nc2cc(=O)n(C)c(=O)n2C)C(c2ccc([N+](=O)[O-])cc2)C(C(=O)Nc2cc(=O)n(C)c(=O)n2C)=C(C)N1 | – | > 8.71 | > 8.71 µM
COc1ccc(NC(=O)C(=O)Cc2nc3ccc(C(=O)c4ccccc4)cc3[nH]c2=O)c([N+](=O)[O-])c1 | – | > 195 | 51.3 µM
Cc1ccc(/C=C(\C#N)c2ccccc2)cc1 | – | > 229 | > 229 µM
C(=C/[PH+](c1ccccc1)c1ccccc1)/[PH+](c1ccccc1)c1ccccc1.[C-]#[O+].[C-]#[O+].[C-]#[O+].[C-]#[O+].[C-]#[O+].[Mo+2].[Mo+4].[c-]1[c-][c-][cH-][c-]1.[c-]1[c-][c-][cH-][c-]1 | – | > 6.03 | 3.31 µM
NCC1CCC(C(=O)O)CC1 (stereo not given) | – | > 200 | > 200 µM
O=C1/C(=C\c2ccc(O)cc2)CCC/C1=C/c1ccc(Cl)c(Cl)c1 | – | > 200 | 1.12 µM
O=C1Nc2ccccc2/C1=C/c1cc(Cl)cc(Cl)c1O (tested in a mixture with another compound) | – | > 200 | 44.7 µM
N#C/C(=C\NC(=S)NC1CCCCC1)c1nc2ccccc2s1 | – | > 200 | 41.7 µM
CCOC(=O)/C(C#N)=C\C=C1/C=CNC2=NCCN21 | – | 19.5 | 24.5 µM
C=C(C)C(=O)O[C@H]1[C@H]2[C@H](OC(=O)[C@H]2C)[C@H](O)[C@@H](C)[C@@H]2C=CC(=O)[C@]21C | – | > 363 | 1.91 µM
NC(=S)N1N=C2CCCCCC[C@@H]2[C@H]1c1ccccc1 | inactive | – | –
O=C(c1nc2ccccc2[nH]c1=O)C(O)c1ccco1 (stereo not given) | – | > 794 | 380 µM
CN(C)CCCN1c2ccccc2Sc2ccc(C(F)(F)F)cc21 | – | > 200 | 107 µM
C=C(Nc1nc2ccc(C)cc2s1)C(=O)C(CC)C(=O)C(CC)CC1C(=O)NC(=O)NC1=O (stereo not given) | – | > 39.8 | > 39.8 µM
